Values joined by “and” are separate entries in the source; they are usually repeats but may differ in a detail not shown here. Equal entries are not always repeated. Each block holds one compound with its values, some of them ahead of it.
Test system: MCF7 complex spheroid growth, % test/control
Assay: Anticancer human tumor MCF7 cell line growth inhibition [Asc];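 further: spheroids exposed to compounds for 7 days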;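 on viability, T/C: 100% = DMSO vehicle control wells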
Details: for viability, T/C: stronger effect = lower value
Method in brief: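 Spheroid model: tumor line + HUVEC + hMSC. Single agents and combinations; top conc. at/near clinical Cmax (10 microM if undetermined), half-log dilutions. DMSO stocks at 800-fold test concentration.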

[1] = curve of first compound, second compound 0.0316 µM
[2] = curve of first compound, second compound 0.1 µM
[3] = curve of first compound, second compound 0.316 µM
[4] = curve of first compound, second compound 1 µM
[5] = curve of first compound, second compound 3.16 µM
[6] = curve of first compound, second compound 10 µM
[7] = second compound 0.0316 µM, first compound 0.00316 µM
[8] = second compound 0.0316 µM, first compound 0.01 µM
[9] = second compound 0.0316 µM, first compound 0.0316 µM
[10] = second compound 0.0316 µM, first compound 0.1 µM
[11] = second compound 0.1 µM, first compound 0.00316 µM
[12] = second compound 0.1 µM, first compound 0.01 µM
[13] = second compound 0.1 µM, first compound 0.0316 µM
[14] = second compound 0.1 µM, first compound 0.1 µM
[15] = second compound 0.316 µM, first compound 0.00316 µM
[16] = second compound 0.316 µM, first compound 0.01 µM
[17] = second compound 0.316 µM, first compound 0.0316 µM
[18] = second compound 0.316 µM, first compound 0.1 µM
[19] = second compound 1 µM, first compound 0.00316 µM
[20] = second compound 1 µM, first compound 0.01 µM
[21] = second compound 1 µM, first compound 0.0316 µM
[22] = second compound 1 µM, first compound 0.1 µM
[23] = second compound 3.16 µM, first compound 0.00316 µM
[24] = second compound 3.16 µM, first compound 0.01 µM
[25] = second compound 3.16 µM, first compound 0.0316 µM
[26] = second compound 3.16 µM, first compound 0.1 µM
[27] = second compound 10 µM, first compound 0.00316 µM
[28] = second compound 10 µM, first compound 0.01 µM
[29] = second compound 10 µM, first compound 0.0316 µM
[30] = second compound 10 µM, first compound 0.1 µM
[31] = second compound 0.0316 µM, first compound 0.316 µM
[32] = second compound 0.0316 µM, first compound 1 µM
[33] = second compound 0.1 µM, first compound 0.316 µM
[34] = second compound 0.1 µM, first compound 1 µM
[35] = second compound 0.316 µM, first compound 0.316 µM
[36] = second compound 0.316 µM, first compound 1 µM
[37] = second compound 1 µM, first compound 0.316 µM
[38] = second compound 1 µM, first compound 1 µM
[39] = second compound 3.16 µM, first compound 0.316 µM
[40] = second compound 3.16 µM, first compound 1 µM
[41] = second compound 10 µM, first compound 0.316 µM
[42] = second compound 10 µM, first compound 1 µM

IC50 [1]: 20.6 nM
IC50 [2]: 44.3 nM
IC50 [3]: 32.1 nM
IC50 [4]: 22.5 nM
IC50 [5]: 39.4 nM
IC50 [6]: 17.2 nM
Structure (SMILES): Cn1ncnc1[C@H]1c2n[nH]c(=O)c3cc(F)cc(c23)N[C@@H]1c1ccc(F)cc1 + Cc1c(S(C)(=O)=O)c(-c2cc(F)cc(N3CCN(c4ccc(NS(=O)(=O)c5ccc(NC(CCN6CCC(C(=O)OCCCP(=O)(O)O)CC6)CSc6ccccc6)c(S(=O)(=O)C(F)(F)F)c5)cc4)CC3)c2)c(-c2ccc(Cl)cc2)n1C(C)C
viability, T/C (second compound 0.0316 µM, first compound 0.000316 µM): 116%
viability, T/C (second compound 0.0316 µM, first compound 0.001 µM): 113%
viability, T/C [7]: 74.6%
viability, T/C [8]: 59.4%
viability, T/C [9]: 50.7%
viability, T/C [10]: 39.7%
viability, T/C (second compound 0.1 µM, first compound 0.000316 µM): 100%
viability, T/C (second compound 0.1 µM, first compound 0.001 µM): 89.8%
viability, T/C [11]: 78.9%
viability, T/C [12]: 57.7%
viability, T/C [13]: 50.5%
viability, T/C [14]: 49%
viability, T/C (second compound 0.316 µM, first compound 0.000316 µM): 103%
viability, T/C (second compound 0.316 µM, first compound 0.001 µM): 75%
viability, T/C [15]: 80.9%
viability, T/C [16]: 54.2%
viability, T/C [17]: 50.9%
viability, T/C [18]: 42.9%
viability, T/C (second compound 1 µM, first compound 0.000316 µM): 106%
viability, T/C (second compound 1 µM, first compound 0.001 µM): 81.7%
viability, T/C [19]: 95.7%
viability, T/C [20]: 66.7%
viability, T/C [21]: 44.8%
viability, T/C [22]: 39.3%
viability, T/C (second compound 3.16 µM, first compound 0.000316 µM): 110%
viability, T/C (second compound 3.16 µM, first compound 0.001 µM): 86.8%
viability, T/C [23]: 89.4%
viability, T/C [24]: 57.3%
viability, T/C [25]: 50.6%
viability, T/C [26]: 46.5%
viability, T/C (second compound 10 µM, first compound 0.000316 µM): 85.3%
viability, T/C (second compound 10 µM, first compound 0.001 µM): 83.6%
viability, T/C [27]: 74.6%
viability, T/C [28]: 51.7%
viability, T/C [29]: 49.9%
viability, T/C [30]: 36.7%

IC50 [1]: > 1000 nM
IC50 [2]: > 1000 nM
IC50 [3]: > 1000 nM
IC50 [4]: > 1000 nM
IC50 [5]: > 1000 nM
IC50 [6]: > 1000 nM
Structure (SMILES): O=C(c1ccc(F)c(F)c1Nc1ccc(I)cc1F)N1CC(O)([C@@H]2CCCCN2)C1 + Cc1c(S(C)(=O)=O)c(-c2cc(F)cc(N3CCN(c4ccc(NS(=O)(=O)c5ccc(NC(CCN6CCC(C(=O)OCCCP(=O)(O)O)CC6)CSc6ccccc6)c(S(=O)(=O)C(F)(F)F)c5)cc4)CC3)c2)c(-c2ccc(Cl)cc2)n1C(C)C
viability, T/C [7]: 101%
viability, T/C [8]: 97.2%
viability, T/C [9]: 88.6%
viability, T/C [10]: 83.2%
viability, T/C [31]: 95.2%
viability, T/C [32]: 112%
viability, T/C [11]: 101%
viability, T/C [12]: 89.7%
viability, T/C [13]: 93.6%
viability, T/C [14]: 88.8%
viability, T/C [33]: 94.8%
viability, T/C [34]: 90%
viability, T/C [15]: 90.7%
viability, T/C [16]: 88.2%
viability, T/C [17]: 81%
viability, T/C [18]: 93.1%
viability, T/C [35]: 96.4%
viability, T/C [36]: 84.2%
viability, T/C [19]: 84.8%
viability, T/C [20]: 78%
viability, T/C [21]: 82.9%
viability, T/C [22]: 94.5%
viability, T/C [37]: 109%
viability, T/C [38]: 74.3%
viability, T/C [23]: 80.9%
viability, T/C [24]: 86.5%
viability, T/C [25]: 80.1%
viability, T/C [26]: 98.5%
viability, T/C [39]: 82.6%
viability, T/C [40]: 81.8%
viability, T/C [27]: 159%
viability, T/C [28]: 164%
viability, T/C [29]: 204%
viability, T/C [30]: 182%
viability, T/C [41]: 114%
viability, T/C [42]: 90.8%

IC50 [1]: > 1000 nM
IC50 [2]: > 1000 nM
IC50 [3]: > 1000 nM
IC50 [4]: > 1000 nM
IC50 [5]: > 1000 nM
IC50 [6]: > 1000 nM
Structure (SMILES): CCN1CCN(Cc2ccc(Nc3ncc(F)c(-c4cc(F)c5nc(C)n(C(C)C)c5c4)n3)nc2)CC1 + Cc1c(S(C)(=O)=O)c(-c2cc(F)cc(N3CCN(c4ccc(NS(=O)(=O)c5ccc(NC(CCN6CCC(C(=O)OCCCP(=O)(O)O)CC6)CSc6ccccc6)c(S(=O)(=O)C(F)(F)F)c5)cc4)CC3)c2)c(-c2ccc(Cl)cc2)n1C(C)C
viability, T/C [7]: 101%
viability, T/C [8]: 96.7%
viability, T/C [9]: 106%
viability, T/C [10]: 95.6%
viability, T/C [31]: 91.4%
viability, T/C [32]: 72.8%
viability, T/C [11]: 92.8%
viability, T/C [12]: 86%
viability, T/C [13]: 86.3%
viability, T/C [14]: 85.2%
viability, T/C [33]: 101%
viability, T/C [34]: 87.3%
viability, T/C [15]: 100%
viability, T/C [16]: 94.2%
viability, T/C [17]: 98.8%
viability, T/C [18]: 95%
viability, T/C [35]: 94.6%
viability, T/C [36]: 69.1%
viability, T/C [19]: 91.6%
viability, T/C [20]: 98.9%
viability, T/C [21]: 79.5%
viability, T/C [22]: 88.4%
viability, T/C [37]: 103%
viability, T/C [38]: 69.2%
viability, T/C [23]: 90.2%
viability, T/C [24]: 85.7%
viability, T/C [25]: 92.8%
viability, T/C [26]: 88.5%
viability, T/C [39]: 92.1%
viability, T/C [40]: 73.1%
viability, T/C [27]: 136%
viability, T/C [28]: 124%
viability, T/C [29]: 182%
viability, T/C [30]: 134%
viability, T/C [41]: 114%
viability, T/C [42]: 61.6%

IC50 (curve of compound): > 1000 nM
Structure (SMILES): CCN1CCN(Cc2ccc(Nc3ncc(F)c(-c4cc(F)c5nc(C)n(C(C)C)c5c4)n3)nc2)CC1
viability, T/C (compound 0.00316 µM): 111% and 93.3% and 96.7%
viability, T/C (compound 0.01 µM): 95.5% and 104% and 99.9%
viability, T/C (compound 0.0316 µM): 103% and 93.3% and 99.2%
viability, T/C (compound 0.1 µM): 116% and 96.6% and 91.2%
viability, T/C (compound 0.316 µM): 99% and 97% and 81.4%
viability, T/C (compound 1 µM): 74.3% and 86.7% and 72.5%

Reference: PubChem BioAssay AID1963445 (Molecular Pharmacology Branch, DTP, NCI, 2024)
